Experimental findings from BindingDB's records for doi:10.1016/j.bmcl.2004.05.049 (Procyon Biopharma, 2004) are described below.

This assay addresses T1, Dimer of Gag-Pol polyprotein [501-599] (Human immunodeficiency virus 1, UniProt P03367).
T1 construct: 501-599
Briefly: Protease Inhibition Assay. Particulars: pH 4.7; 30 °C. As for the experimental part:
HIV-1 protease activity was measured by a continuous fluorometric assay using the internally quenched fluorogenic substrate DABCYL-Ser-Gln-Asn-Tyr-Pro-Ile-Val-Gln-EDANS. The proteolytic activity can be monitored by the increase in fluorescence intensity, and the protease products were analyzed by HPLC.

As for `Cc1ccc(S(=O)(=O)N(CC(C)C)[C@@H](CCCCNC(=O)NCc2ccccn2)C(=O)O)cc1` [(2S)-2-[(4-methylbenzene)(2-methylpropyl)sulfonamido]-6-{[(pyridin-2-ylmethyl)carbamoyl]amino}hexanoic acid], the Ki was > 300 nM.

`Cc1ccc(S(=O)(=O)N(CC(C)C)[C@@H](CCCCNC(=O)N(CCc2ccccc2)Cc2ccccc2)C(=O)O)cc1` [(2S)-6-{[benzyl(2-phenylethyl)carbamoyl]amino}-2-[(4-methylbenzene)(2-methylpropyl)sulfonamido]hexanoic acid]: the Ki is > 300 nM.
